Measured values reported in patent US7592326B2, “Method for stimulating the immune, inflammatory or neuroprotective response” (priority 2004, dated 2009).
Marks after values point to notes of the source that are not given here.

Experiments:
[1] = test system: human colon carcinoma cells; details: synthetic c-di-GMP; cited from earlier work
[2] = test system: C. albicans strain SC5314; assay: Systemic C. albicans infection in mice (proposed); type: in vivo, Candida albicans; details: A/J and C57BL/6J mice, 3×10^5 blastospores i.v.
Method: To show the efficacy of c-di-GMP in inhibiting C. albicans infection, 8- to 12-week-old A/J and C57BL/6J mice are infected with C. albicans strain SC5314. The blastospores are washed twice in phosphate-buffered saline (PBS) and resuspended in PBS at the required density. For experimental infections, A/J and C57BL/6J mice are inoculated via the tail vein with 200 μl of a suspension containing 3×10^5 C. albicans blastospores in PBS. One group of mice will be pretreated with c-di-GMP (intranasally, i.p., i.m., s.q.). Mice are to be closely monitored for clinical signs of disease, such as lethargy, loss of appetite, hunched back, and ruffled fur.
The levels of TNF-α and IL-6 in tissue extracts are determined using “two-site sandwich” assays with commercially available enzyme-linked immunosorbent assay (ELISA) kits (BD Biosciences). Tissue extracts are prepared by homogenization in lysis buffer (20 mM Tris [pH 7.5], 0.3 M NaCl, 2% sodium deoxycholate, 2% Triton X-100, protease inhibitor cocktail [Roche Diagnostics]). Additional determinations of the levels of 32 cytokines and chemokines are carried out by using cardiac tissue extracts and RayBio mouse cytokine array II membranes (RayBiotech Inc., Norcross, Ga.). […] All values are normalized to the protein content and determined using the Bradford reagent.

[3] = test system: monocytes and granulocytes; assay: Monocyte and granulocyte recruitment after intraperitoneal injection (FACS of peritoneal fluid); type: in vivo, C57BL/6 mice
Method: C57BL/6 mice were injected with a volume of 500 ul containing 200 nmol c-di-GMP. […] Fluid was incubated in PBS BSA azide +24G2 (anti Fc) for 15 min at 4° C., washed in PBS, washed in PBS then stained and analyzed by FACs analysis (PBS BSA azide, 30 min 4° C.). Cells were stained with directly coupled fluorescent mAbs combinations in […] FACS buffer and further collected on a FACScalibur cytofluorometer (Becton Dickinson, BD). The following mAbs were purchased: fluorescein (FITC)-coupled M1/70 (anti-CD11b, BD Pharmingen), phycoerythrin (PE)-coupled 1A8 (anti-LY-6G, BD Pharmingen), 7/4 (Caltag), allophycocyanin (APC)-coupled F4/80 (Caltag). Cells were gated according to size and scatter to eliminate dead cells and debris from analysis.

[4] = test system: ERK; assay: Western blot signaling in human macrophages: ERK; type: cell-based
Method: Preparation of macrophages was performed as previously described (Akagawa et al., 1996). Briefly, fully differentiated macrophages from human PBMC were isolated from leukapheresis preparations obtained by the Blood Bank, Clinical Center, National Institutes of Health, Bethesda, Md. The leukocyte-rich preparation was overlaid on Accu-prep in 50 ml tubes and the tubes were centrifuged at 800 × g for 20 min at room temperature. PBMC fractions were collected, washed once with PBS at room temperature and twice with complete medium at 4° C. and resuspended in the same medium. Monocytes were further purified by using iso-osmotic Percoll gradient (Amersham Biosciences). At this stage, the purity of monocytes was higher than 90%. One and half million cells were placed on a 12-well plate in 1.5 ml RPMI1640 containing 50 ng/ml human M-CSF. On day 4, 1 ml of the medium was replaced with 1 ml of fresh medium containing 50 ng human M-CSF. On day 7, non-adherent cells were washed out and adherent cells were used as macrophages.
Western blot analysis of macrophages was performed as previously described (Matsuyama et al., 2003). Briefly, prepared macrophages were starved in RPMI 1640 without FCS for 10 h. Cells were rinsed three times with PBS, and treated with cyclic dinucleotide for various times. Cells were lysed on ice for 20 min in a buffer containing 50 mM NaCl, 20 mM Tris-HCl, 50 mM sodium fluoride, 30 mM Na4P207, 5 mM EGTA, 3 mM sodium orthovanadate, 1% Triton X-100, 1 mg/ml leupeptin, 1 mM PMSF, 1 mg/ml aprotinin, 1 mg/ml pepstatin A and 100 mM sodium orthovanadate pre-treated with H202. The lysates were spun in a microcentrifuge for 20 min and the supernatants were collected. Proteins were analyzed on 12% polyacrylamide gels by SDS-PAGE and transferred electrophoretically to nitrocellulose membranes at 150 mA for 1 h in a semi-dry system. The membranes were incubated with an antibody against either phosphorylated or nonphosphorylated p38 MAP kinase or ERK, followed by an appropriate secondary Ab coupled with horseradish peroxidase. […]

[5] = test system: lung leukocytes; assay: Lung leukocyte accumulation in Klebsiella-infected mice (lung digest, flow cytometry); type: in vivo, Balb/c mice
[6] = test system: DCs; assay: Mannose receptor-mediated endocytosis (FITC-dextran uptake); type: cell-based, human; details: DCs treated 24 h; FIG. 2
Method: Mannose receptor (MR)-mediated endocytosis was measured as the cellular uptake of FITC-dextran (DX) and quantified by flow cytometry. A total of 2×10^5 cells per sample were incubated in media containing FITC-DX (1 mg/ml) (Mv 40,000). After 15 min of incubation at 37° C. or 4° C. (as negative control), cells were washed four times with cold PBS containing 1% FCS and 0.01% NaN3 and fixed in 1% formaldehyde. The background (cells pulsed at 4° C.) was always subtracted.

In the case of `Nc1nc(=O)c2ncn([C@@H]3OC4COP(=O)(O)O[C@H]5[C@@H](O)[C@H](n6cnc7c(=O)nc(N)[nH]c76)O[C@@H]5COP(=O)(O)OC4C3O)c2[nH]1` (stereo partly shown) [c-di-GMP, Bis(3′→5′)-cyclic diguanylic acid], the “basal and growth factor induced proliferation of human colon carcinoma cells” value [1] is listed as “inhibits”, the clinical outcome [2] is listed as “less mortality” and the “recruitment of F4/80^high LY-6G^med (monocytes) and F4/80^med LY-6G^high (granulocytes)” value ([3]; 200 nmol i.p., peritoneal lavage at 18 hours) is listed as “induced the recruitment”. For the same compound, the “macrophage and granulocyte recruitment in vivo relative to comparators” value ([3]; under the conditions tested) was “to a greater extent than CpG ODN and LPS”, the ERK phosphorylation ([4]; 10- and 100 uM, human macrophages, FIG. 13B) was “activate” and the “time of peak ERK phosphorylation” value ([4]; absent at 20 min) was 5 min. For the same compound, the “magnitude of ERK phosphorylation relative to LPS” value ([4]; under the conditions tested) was “weaker”, the “increase in the number of neutrophils in the lungs of infected mice vs control-pretreated” value ([5]; 48 hr post infection, p<0.01) was 3 fold and the “total number of lung leukocytes vs control-pretreated” value ([5]; 48 hr post infection, p<0.01) was “significant increase”. For the same compound, the “Total number lung cells” value ([5]; i.n. pretreatment 48 and 24 hr prior, lung digests 48 hrs after K. pneumoniae (kp), uninfected 2.7 × 10^7) was 4.67 × 10^7*, the “trafficking of myeloid or plasmacytoid DC to the lung in response to bacterial challenge” value ([5]; i.n., data not shown) was “did not alter” and the “αβTcr^+, CD69^+” value ([5]; lung digests 48 hrs after kp, uninfected 0.33 × 10^5) was 3.7 × 10^5*. For the same compound, the “DX5^+, CD69^+” value ([5]; lung digests 48 hrs after kp, uninfected 0.78 × 10^5) was 5.98 × 10^5**, the PMN ([5]; lung digests 48 hrs after kp, uninfected 0.8 × 10^6) was 22 × 10^6** and the “DX5^+ (NK)” value ([5]; lung digests 48 hrs after kp, uninfected 1.3 × 10^6) was 3.8 × 10^6. For the same compound, the “DX5^+, αβγδTcr^+(NK T^+)” value ([5]; lung digests 48 hrs after kp, uninfected 1.6 × 10^5) was 6.8 × 10^5*, the Mono/Macrophage ([5]; lung digests 48 hrs after kp, uninfected 2.3 × 10^7) was 1.9 × 10^7 and the “αβTcr^+” value ([5]; lung digests 48 hrs after kp, uninfected 2.6 × 10^6) was 5.5 × 10^6**. The “uptake of FITC-DX (MR-mediated endocytosis)” value [6] was “did not induce any major effect”.
